Test results published in US12473324B2, “Triazine-based amphiphilic compound and use thereof” (INDUSTRY-UNIVERSITY COOPERATION FOUNDATION HANYANG …, priority 2019, dated 2025).

Columns and labels:
[1] = Critical micelle concentration (CMC) by fluorescent dye diphenylhexatriene (DPH); assay type: physicochemical; conditions: DPH fluorescence
Protocol: A method of measuring the CMC is not particularly limited, but a method widely known in the art may be used, and for example, the CMC may be measured by a fluorescent staining method using diphenylhexatriene (DPH).
(§1) Specifically, the critical micelle concentrations (CMCs) were measured using a fluorescent dye, diphenylhexatriene (DPH), and the hydrodynamic radii (Rh) of micelles formed by each preparation (1.0 wt %) were determined by a dynamic light scattering (DLS) experiment. The measured results are shown in Table 1 compared to DDM which is an existing amphiphilic molecule (detergent).

[2] = Hydrodynamic radius (Rh) of micelles by dynamic light scattering (DLS); assay type: physicochemical; conditions: 1.0 wt % detergent
Protocol: A method of measuring the radius of micelle is not particularly limited, but a method widely known in the art may be used, and for example, the radius of micelle may be measured using a dynamic light scattering (DLS) experiment.
as §1

[3] = Solubility of detergent (Table 1); assay type: physicochemical
[4] = target: human β2 adrenergic receptor (β2AR) (Homo sapiens, UniProt P07550); experiment: β2AR stability: [3H]-dihydroalprenolol (DHA) ligand binding assay; conditions: CMC+0.2 wt %, room temperature, 6 days, [3H]-DHA
Sequence of human β2 adrenergic receptor (β2AR) (P07550 whole entry): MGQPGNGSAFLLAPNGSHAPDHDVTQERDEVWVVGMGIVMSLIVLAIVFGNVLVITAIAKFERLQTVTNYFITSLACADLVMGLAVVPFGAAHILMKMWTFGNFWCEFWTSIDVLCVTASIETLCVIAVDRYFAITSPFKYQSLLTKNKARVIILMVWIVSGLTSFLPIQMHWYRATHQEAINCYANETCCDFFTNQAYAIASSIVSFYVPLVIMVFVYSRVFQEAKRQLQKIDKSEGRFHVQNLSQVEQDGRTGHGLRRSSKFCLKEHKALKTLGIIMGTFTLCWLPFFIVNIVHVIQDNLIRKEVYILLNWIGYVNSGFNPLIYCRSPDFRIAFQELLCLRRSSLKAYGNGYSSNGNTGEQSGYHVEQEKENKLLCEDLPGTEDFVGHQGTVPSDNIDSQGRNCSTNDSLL
Protocol: Experiments were performed to measure the structural stability of the human β2 adrenergic receptor (β2AR) and G-protein-coupled receptor (GPCR) by TSMs, TTGs and TEMs. That is, a receptor purified by DDM was subjected to amphiphilic molecular exchange when diluted with a buffer solution containing only each of TSMs, TTGs and TEMs without cholesteryl hemisuccinate (CHS) or a buffer solution containing CHS and DDM. The final concentration of the amphiphilic molecule was CMC+0.2 wt %, and the ligand binding properties of the receptor were measured by binding of [^3H]-dihydroalprenolol ([^3H]-DHA). Specifically, the following method was used for a radioligand binding test. β2AR was purified using 0.1% DDM (D. M. Rosenbaum et al., Science, 2007, 318, 1266-1273.) and finally concentrated to about 10 mg/ml (about 200 μM). A master binding mixture containing 10 nM [^3H]-dihydroalprenolol (DHA) supplemented with 0.5 mg/ml BSA in 0.2% amphiphilic compounds (DDM, TSMs, TTGs or TEMs) was prepared using β2AR purified with DDM. Receptors purified with DDM, TSMs, TTGs or TEMs were incubated with 10 nM [^3H]-DHA at room temperature for 6 days. The mixture was loaded onto a G-50 column and a flow through was collected with 1 ml of a binding buffer (20 mM HEPES supplemented with 0.5 mg/ml BSA and 20×CMC each amphiphilic compound, pH 7.5, 100 mM NaCl), and filled with 15 ml of a scintillation fluid. Receptor-bound [^3H]-DHA was measured by a scintillation counter (Beckman). The binding of [^3H]-DHA is shown as a column graph.

CMC [1] [mM] | Rh (nm) [2] [nm] | solubility [3] [%] | Structure (SMILES) | β2AR long-term ligand binding retention [4]
~0.006 | 4.2 ± 0.0 | ~10 | CCCCCCCCSc1nc(NC(CO[C@@H]2O[C@H](CO)[C@@H](O[C@H]3O[C@H](CO)[C@@H](O)[C@H](O)[C@H]3O)[C@H](O)[C@H]2O)CO[C@@H]2O[C@H](CO)[C@@H](O[C@H]3O[C@H](CO)[C@@H](O)[C@H](O)[C@H]3O)[C@H](O)[C@H]2O)nc(SCCCCCCCC)n1 [TSM-T8] | better in maintaining the ligand binding ability of the receptor than DDM
~0.01 | 3.6 ± 0.1 | ~10 | CCCCCCCSc1nc(NC(CO[C@@H]2O[C@H](CO)[C@@H](O[C@H]3O[C@H](CO)[C@@H](O)[C@H](O)[C@H]3O)[C@H](O)[C@H]2O)CO[C@@H]2O[C@H](CO)[C@@H](O[C@H]3O[C@H](CO)[C@@H](O)[C@H](O)[C@H]3O)[C@H](O)[C@H]2O)nc(SCCCCCCC)n1 [TSM-T7] | better in maintaining the ligand binding ability of the receptor than DDM
~0.002 | 56.2 ± 9.9 | ~1 | CCCCCCCCCCCOc1nc(NC(CO[C@@H]2O[C@H](CO)[C@@H](O[C@H]3O[C@H](CO)[C@@H](O)[C@H](O)[C@H]3O)[C@H](O)[C@H]2O)CO[C@@H]2O[C@H](CO)[C@@H](O[C@H]3O[C@H](CO)[C@@H](O)[C@H](O)[C@H]3O)[C@H](O)[C@H]2O)nc(OCCCCCCCCCCC)n1 [TSM-E11] | better in maintaining the ligand binding ability of the receptor than DDM

Structure (SMILES) | CMC [1] [mM] | Rh (nm) [2] [nm] | solubility [3] [%] | β2AR long-term ligand binding retention [4]
CCCCCCCCCSc1nc(NC(CO[C@@H]2O[C@H](CO)[C@@H](O)[C@H](O)[C@H]2O)(CO[C@@H]2O[C@H](CO)[C@@H](O)[C@H](O)[C@H]2O)CO[C@@H]2O[C@H](CO)[C@@H](O)[C@H](O)[C@H]2O)nc(SCCCCCCCCC)n1 [TTG-T9] | ~0.010 | 3.3 ± 0.11 | ~10 | better in maintaining the ligand binding ability of the receptor than DDM
